Experimental findings from ChEMBL document CHEMBL1212833, “Protein lysine methyltransferase G9a inhibitors: design, synthesis, and structure activity relationships of 2,4-diamino-7-aminoalkoxy-quinazolines” (J Med Chem, 2010) are described below.

For assay [1], the target named is T1, Histone-lysine N-methyltransferase EHMT2 (Homo sapiens, UniProt Q96KQ7).
T1 sequence (Q96KQ7 whole entry): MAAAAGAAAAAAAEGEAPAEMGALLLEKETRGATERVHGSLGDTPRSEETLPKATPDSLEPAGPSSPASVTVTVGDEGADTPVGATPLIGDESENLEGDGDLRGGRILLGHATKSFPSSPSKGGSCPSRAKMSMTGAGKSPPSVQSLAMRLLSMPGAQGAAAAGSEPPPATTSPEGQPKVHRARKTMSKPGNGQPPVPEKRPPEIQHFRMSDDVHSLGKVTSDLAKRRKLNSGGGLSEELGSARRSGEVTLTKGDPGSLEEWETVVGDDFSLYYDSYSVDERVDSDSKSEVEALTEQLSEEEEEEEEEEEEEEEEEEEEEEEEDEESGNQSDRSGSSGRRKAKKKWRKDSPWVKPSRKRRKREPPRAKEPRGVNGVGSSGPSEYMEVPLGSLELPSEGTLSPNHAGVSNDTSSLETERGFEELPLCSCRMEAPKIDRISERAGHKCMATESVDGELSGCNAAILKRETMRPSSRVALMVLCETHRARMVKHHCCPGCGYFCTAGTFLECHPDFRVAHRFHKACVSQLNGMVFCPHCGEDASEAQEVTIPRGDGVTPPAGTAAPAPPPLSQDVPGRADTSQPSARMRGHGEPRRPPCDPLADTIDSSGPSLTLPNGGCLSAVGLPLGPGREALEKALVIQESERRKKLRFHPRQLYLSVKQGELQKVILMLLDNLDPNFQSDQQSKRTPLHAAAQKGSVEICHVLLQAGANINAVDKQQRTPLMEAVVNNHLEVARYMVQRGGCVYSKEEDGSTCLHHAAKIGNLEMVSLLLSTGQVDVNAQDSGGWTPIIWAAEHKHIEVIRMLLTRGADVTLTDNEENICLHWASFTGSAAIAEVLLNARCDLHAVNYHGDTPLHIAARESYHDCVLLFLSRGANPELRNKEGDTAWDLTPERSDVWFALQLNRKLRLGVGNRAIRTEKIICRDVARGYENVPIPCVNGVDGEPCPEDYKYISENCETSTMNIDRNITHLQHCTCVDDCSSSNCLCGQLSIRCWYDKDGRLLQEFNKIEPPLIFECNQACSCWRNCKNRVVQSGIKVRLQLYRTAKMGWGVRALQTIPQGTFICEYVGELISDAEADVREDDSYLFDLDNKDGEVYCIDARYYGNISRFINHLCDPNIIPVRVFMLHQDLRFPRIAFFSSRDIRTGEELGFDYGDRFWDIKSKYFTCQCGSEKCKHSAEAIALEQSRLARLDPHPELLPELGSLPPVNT
The assay is described as follows: Inhibition of methyl transferase activity of G9a assessed as inhibition of H3K9 methylation by chemiluminescence based oxygen tunneling assay.

Assay [2] deals with T1, Histone-lysine N-methyltransferase EHMT2. Description: Activity at methyl transferase activity G9a by enzyme coupled S-adenocylehomocystein detection assay.
A short description of assay [3]: Activity at methyl transferase activity JMJD2E by formaldehyde dehydrogenase-coupled assay.
Assay [4] concerns the target T2, N-lysine methyltransferase KMT5A (Homo sapiens, UniProt Q9NQR1).
T2 sequence (Q9NQR1 whole entry): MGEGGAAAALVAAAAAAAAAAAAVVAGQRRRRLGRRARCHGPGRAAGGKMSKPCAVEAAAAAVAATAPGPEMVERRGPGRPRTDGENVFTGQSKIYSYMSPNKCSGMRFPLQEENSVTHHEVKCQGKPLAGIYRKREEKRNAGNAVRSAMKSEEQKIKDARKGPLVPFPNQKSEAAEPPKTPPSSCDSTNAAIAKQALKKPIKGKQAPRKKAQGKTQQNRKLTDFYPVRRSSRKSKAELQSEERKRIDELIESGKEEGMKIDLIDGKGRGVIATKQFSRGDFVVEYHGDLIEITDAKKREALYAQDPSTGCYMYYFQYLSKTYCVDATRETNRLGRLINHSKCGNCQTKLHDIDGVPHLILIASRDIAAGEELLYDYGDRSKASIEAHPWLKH
Description: Activity at methyl transferase activity SET8/preSet7 by enzyme coupled S-adenocylehomocystein detection assay.

For assay [5], the target named is T3, Histone-lysine N-methyltransferase EHMT1 (Homo sapiens, UniProt Q9H9B1).
T3 sequence (Q9H9B1 whole entry): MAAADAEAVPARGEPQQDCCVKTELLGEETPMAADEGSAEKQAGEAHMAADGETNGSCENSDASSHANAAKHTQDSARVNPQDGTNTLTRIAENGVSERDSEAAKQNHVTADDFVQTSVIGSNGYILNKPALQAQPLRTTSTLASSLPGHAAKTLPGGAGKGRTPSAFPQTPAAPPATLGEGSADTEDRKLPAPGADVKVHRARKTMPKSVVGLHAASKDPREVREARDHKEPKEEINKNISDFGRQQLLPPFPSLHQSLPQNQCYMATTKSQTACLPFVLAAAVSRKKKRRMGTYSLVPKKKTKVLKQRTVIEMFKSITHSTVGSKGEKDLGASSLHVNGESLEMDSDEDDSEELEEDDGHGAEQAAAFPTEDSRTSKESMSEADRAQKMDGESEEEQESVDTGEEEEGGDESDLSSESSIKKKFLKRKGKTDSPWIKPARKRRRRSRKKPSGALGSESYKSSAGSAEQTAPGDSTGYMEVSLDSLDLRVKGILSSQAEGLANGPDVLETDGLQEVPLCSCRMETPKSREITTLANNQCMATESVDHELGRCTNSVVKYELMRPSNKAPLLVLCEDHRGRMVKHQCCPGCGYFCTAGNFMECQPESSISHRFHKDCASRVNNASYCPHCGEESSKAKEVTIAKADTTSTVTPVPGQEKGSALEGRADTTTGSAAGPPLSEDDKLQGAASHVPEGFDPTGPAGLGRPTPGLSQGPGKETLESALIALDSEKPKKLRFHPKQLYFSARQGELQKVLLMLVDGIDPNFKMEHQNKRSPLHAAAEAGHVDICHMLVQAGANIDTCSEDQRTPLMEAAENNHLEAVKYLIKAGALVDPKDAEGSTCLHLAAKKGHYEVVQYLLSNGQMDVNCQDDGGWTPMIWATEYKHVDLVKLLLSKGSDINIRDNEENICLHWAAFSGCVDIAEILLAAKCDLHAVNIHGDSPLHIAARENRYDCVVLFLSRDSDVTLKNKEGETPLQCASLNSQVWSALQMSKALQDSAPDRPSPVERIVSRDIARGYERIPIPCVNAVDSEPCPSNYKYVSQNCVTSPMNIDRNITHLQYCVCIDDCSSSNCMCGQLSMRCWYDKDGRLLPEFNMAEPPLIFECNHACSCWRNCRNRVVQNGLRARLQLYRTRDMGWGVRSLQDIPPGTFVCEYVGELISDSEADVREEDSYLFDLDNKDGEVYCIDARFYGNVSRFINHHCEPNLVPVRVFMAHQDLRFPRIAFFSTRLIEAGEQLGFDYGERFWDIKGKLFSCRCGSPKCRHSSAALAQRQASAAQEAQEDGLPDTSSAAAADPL
Description: Activity at methyl transferase activity GLP by enzyme coupled S-adenocylehomocystein detection assay.

The target of assay [6] is T4, Histone-lysine N-methyltransferase SETD7 (Homo sapiens, UniProt Q8WTS6).
T4 sequence (Q8WTS6 whole entry): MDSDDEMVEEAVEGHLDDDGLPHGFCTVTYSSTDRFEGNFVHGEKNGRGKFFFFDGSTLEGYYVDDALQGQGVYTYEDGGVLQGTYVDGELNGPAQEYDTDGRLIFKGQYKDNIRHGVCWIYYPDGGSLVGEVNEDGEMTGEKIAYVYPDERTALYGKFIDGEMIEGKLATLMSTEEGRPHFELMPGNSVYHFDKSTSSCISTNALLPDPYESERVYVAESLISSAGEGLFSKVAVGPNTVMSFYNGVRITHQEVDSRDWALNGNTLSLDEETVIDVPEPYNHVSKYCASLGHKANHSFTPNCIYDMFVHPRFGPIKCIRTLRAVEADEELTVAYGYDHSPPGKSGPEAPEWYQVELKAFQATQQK
Description: Activity at methyl transferase activity SET7/9 by enzyme coupled S-adenocylehomocystein detection assay.

The target of assay [7] is Protein arginine N-methyltransferase 3 (Homo sapiens, UniProt O60678). Description: Activity at methyl transferase activity PRMT3 by enzyme coupled S-adenocylehomocystein detection assay.
The target in assay [8] is T3, Histone-lysine N-methyltransferase EHMT1. Description: Activity at methyl transferase activity GLP by chemiluminescence based oxygen tunneling assay.

Chain of Protein arginine N-methyltransferase 3 (O60678 whole entry): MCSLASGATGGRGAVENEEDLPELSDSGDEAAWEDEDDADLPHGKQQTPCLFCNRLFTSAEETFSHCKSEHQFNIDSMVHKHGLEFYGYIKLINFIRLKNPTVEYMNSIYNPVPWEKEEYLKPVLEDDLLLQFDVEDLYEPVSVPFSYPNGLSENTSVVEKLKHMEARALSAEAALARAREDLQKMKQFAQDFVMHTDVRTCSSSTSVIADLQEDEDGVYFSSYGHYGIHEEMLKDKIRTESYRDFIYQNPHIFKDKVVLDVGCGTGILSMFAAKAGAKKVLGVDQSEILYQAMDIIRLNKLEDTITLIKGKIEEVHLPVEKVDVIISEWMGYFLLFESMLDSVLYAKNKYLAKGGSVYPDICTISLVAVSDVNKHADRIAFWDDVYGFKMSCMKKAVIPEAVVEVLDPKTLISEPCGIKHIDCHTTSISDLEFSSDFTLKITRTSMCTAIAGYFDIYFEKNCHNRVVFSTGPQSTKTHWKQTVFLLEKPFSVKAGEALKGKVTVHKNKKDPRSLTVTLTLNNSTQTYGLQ

As a reminder, the IC50 is the concentration needed to halve the response being measured. On to `CNc1nc(N2CCCN(C)CC2)nc2cc(OC)c(OC)cc12`, for which, in assay [1], the IC50 is over 10000 nM. For `COc1cc2c(NC3CCN(C)CC3)nc(N3CCCN(C)CC3)nc2cc1OCCCCN(C)C`, the IC50 in assay [2] was determined as 140 nM; in assay [1] it was 110 nM. As for `COc1cc2c(NC3CCN(C)CC3)nc(N3CCCN(C)CC3)nc2cc1OCCCCCN(C)C`, in assay [2], 95 nM corresponded to half-maximal inhibition (IC50).

In the case of `CNCCCOc1cc2nc(N3CCCN(C)CC3)nc(NC3CCN(C)CC3)c2cc1OC`, the midpoint of inhibition in assay [2], the IC50, lay at 120 nM.

On to `CCN(CC)CCCOc1cc2nc(N3CCCN(C)CC3)nc(NC3CCN(C)CC3)c2cc1OC`, for which, in assay [2], the concentration for half-maximal inhibition (IC50) amounted to 52 nM.

In assay [2], `CCCN(C)CCCOc1cc2nc(N3CCCN(C)CC3)nc(NC3CCN(C)CC3)c2cc1OC` registered an IC50 of 51 nM.

`COc1cc2c(NC3CCN(C)CC3)nc(N3CCCN(C)CC3)nc2cc1OCCCN1CCOCC1`: the IC50 in assay [2] amounted to 880 nM; in assay [1] it was 780 nM. As for `COCCCCOc1cc2nc(N3CCCN(C)CC3)nc(NC3CCN(C)CC3)c2cc1OC`, in assay [1], the IC50 was over 10000 nM. Regarding `COc1cc2c(NC3CCN(C)CC3)nc(N3CCCN(C)CC3)nc2cc1OCCCCNC(=O)OC(C)(C)C`, the IC50 in assay [1] is over 10000 nM. In the case of `COc1cc2c(NC3CCN(C)CC3)nc(N3CCCN(C)CC3)nc2cc1OCCCCCN`, the IC50 in assay [2] was 235 nM; in assay [1], 110 nM. Take `COc1cc2c(NC3CCN(C)CC3)nc(N3CCCN(C)CC3)nc2cc1OCCCCC(N)=O`: the IC50 in assay [1] was over 10000 nM. Take `COc1cc2c(NC3CCN(C)CC3)nc(N3CCCN(C)CC3)nc2cc1OCCOCCN(C)C`: the IC50 in assay [3] was over 57000 nM; in assay [4], over 40000 nM; in assay [5], 15 nM; in assay [6], over 40000 nM; in assay [7] it was over 40000 nM; in assay [8] it was 23 nM. In addition, the IC50 in assay [1] was 6 nM. Regarding `COc1cc2c(NC3CCN(C)CC3)nc(N3CCCN(C)CC3)nc2cc1OCCOCCN1CCCC1`, the IC50 came to 57 nM in assay [2] and 110 nM in assay [1]. Turning to `COc1cc2c(NC3CCN(C)CC3)nc(N3CCCN(C)CC3)nc2cc1OCCN(C)CCN(C)C`, the IC50 was found to be 345 nM in assay [2] and 173 nM in assay [1]. Consider `COc1cc2c(NC3CCN(C)CC3)nc(N3CCCN(C)CC3)nc2cc1OCC1CCCNC1` (centres undefined), for which the IC50 stood at 1500 nM in assay [2] and 5100 nM in assay [1]. As for `COc1cc2nc(N3CCCN(C)CC3)nc(N(C)C3CCN(C)CC3)c2cc1OC`, in assay [1], the IC50 is over 10000 nM.

Take `COc1cc2nc(N3CCCN(C)CC3)nc(OC3CCN(C)CC3)c2cc1OC`: in assay [1], the IC50 is over 10000 nM. Compound `COc1cc2nc(N3CCCN(C)CC3)nc(NC3CCN(C)C3)c2cc1OC` (centres undefined) returned a half-inhibitory concentration (IC50) in assay [2] of 910 nM. As to `COc1cc2c(NC3CCN(C)CC3)nc(N3CCCN(C)CC3)nc2cc1OCCCN(C)C`, the IC50 in assay [3] was over 57000 nM; in assay [4], over 40000 nM; in assay [6] it was over 40000 nM; in assay [7], over 40000 nM.
